The molecules below were run against GMPPNP-loaded KRAS G12C (Homo sapiens, UniProt P01116, G12C) (assay: KRAS G12C RAF Disruption Assay (HTRF)). Conditions: recombinant GMPPNP-loaded KRAS G12C (5 nM), 20 min with compound; GST-RAF1 RBD (9 nM); HTRF signal; read-out: KRASG12C RAF Disruption Assay (IC50).
Assay type: biochemical
Procedure, shortened: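 The read-out is an HTRF 520/495 emission ratio, with IC50 taken from dose-response curves. Compound was first incubated for 20 min at room temperature with active-state KRAS G12C (GMPPNP, 5 nM) in Tris pH 7.5/NaCl/MgCl2/DTT/BSA. RAF1 RBD-GST (9 nM, 20 min) and SA-Tb (0.25 nM, 3 h) were added in turn.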

GMPPNP-loaded KRAS G12C, sequence (P01116 1-188 isoform P01116-2 G12C): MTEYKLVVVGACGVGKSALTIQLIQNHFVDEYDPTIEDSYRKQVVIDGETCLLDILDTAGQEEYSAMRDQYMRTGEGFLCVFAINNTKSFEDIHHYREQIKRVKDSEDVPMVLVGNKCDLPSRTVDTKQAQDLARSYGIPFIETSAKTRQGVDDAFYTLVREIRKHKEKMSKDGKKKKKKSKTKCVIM

Row | IC50 [nM] | Compound
1 | 260 | C#Cc1c(F)ccc2cc(O)cc(-c3ncc4c(N5C[C@H]6CC[C@@H](C5)N6C(=O)/C(F)=C/c5ncco5)nc(OC[C@@]56CCCN5C[C@H](F)C6)nc4c3F)c12 [Compound 4, (Z)-1-((1R, 5S)-3-(7-(8-ethynyl-7-fluoro-3-hydroxynaphthalen-1-yl)-8-fluoro-2-(((2R, 7aS)-2-fluorotetrahydro-1H-pyrrolizin-7a(5H)-yl)methoxy)pyrido[4,3-d]pyrimidin-4-yl)-3,8-diazabicyclo[3.2.1]octan-8-yl)-2-fluoro-3-(oxazol-2-yl)prop-2-en-1-one]
2 | 890 | N#Cc1cccc2[nH]cc(-c3ncc4c(N5CCN(C(=O)/C(F)=C/c6ccccn6)CC5)nc(OC[C@@]56CCCN5C[C@H](F)C6)nc4c3F)c12 [Compound 133, 3-(8-fluoro-4-(4-((Z)-2-fluoro-3-(pyridin-2-yl)acryloyl)piperazin-1-yl)-2-(((2R, 7aS)-2-fluorotetrahydro-1H-pyrrolizin-7a(5H)-yl)methoxy)pyrido[4,3-d]pyrimidin-7-yl)-1H-indole-4-carbonitrile]
3 | 5700 | C#Cc1cccc2cccc(-c3ncc4c(N(C)C5CCN(C(=O)/C(F)=C/c6nccs6)C5C)nc(OC[C@@]56CCCN5C[C@H](F)C6)nc4c3F)c12 (single isomer, unassigned) [Example 73 trans isomer 2]
4 | < 2 | C#Cc1c(F)ccc2cc(O)cc(-c3ncc4c(N5CCN(C(=O)/C(F)=C/c6ccccn6)CC5)nc(OC[C@@H]5CCCN5CCCn5cc(CNC(=O)CCCC[C@@H]6SC[C@@H]7NC(=O)N[C@@H]76)nn5)nc4c3F)c12 [Compound 112, N-((1-(3-((S)-2-(((7-(8-ethynyl-7-fluoro-3-hydroxynaphthalen-1-yl)-8-fluoro-4-(4-((Z)-2-fluoro-3-(pyridin-2-yl)acryloyl)piperazin-1-yl)pyrido[4,3-d]pyrimidin-2-yl)oxy)methyl)pyrrolidin-1-yl)propyl)-1H-1,2,3-triazol-4-yl)methyl)-5-((3aS,4S,6aR)-2-oxohexahydro-1H-thieno[3,4-d]imidazol-4-yl)pentanamide]
5 | 170 | C#Cc1c(F)ccc2cc(O)cc(-c3ncc4c(N5C[C@H]6CC[C@@H](C5)N6C(=O)/C(F)=C/c5cncc(C)n5)nc(OC[C@@]56CCCN5C[C@H](F)C6)nc4c3F)c12 [Example 26, (Z)-1-((1R, 5S)-3-(7-(8-ethynyl-7-fluoro-3-hydroxynaphthalen-1-yl)-8-fluoro-2-(((2R, 7aS)-2-fluorotetrahydro-1H-pyrrolizin-7a(5H)-yl)methoxy)pyrido[4,3-d]pyrimidin-4-yl)-3,8-diazabicyclo[3.2.1]octan-8-yl)-2-fluoro-3-(6-methylpyrazin-2-yl)prop-2-en-1-one]
6 | 41 | Nc1nc2c(-c3ncc4c(N5CCN(C(=O)/C(F)=C/c6nccs6)CC5)nc(OC[C@@]56CCCN5C[C@H](F)C6)nc4c3F)c(F)cc(F)c2s1 [Example 67, (Z)-1-(4-(7-(2-amino-5,7-difluorobenzo[d]thiazol-4-yl)-8-fluoro-2-(((2R, 7aS)-2-fluorotetrahydro-1H-pyrrolizin-7a(5H)-yl)methoxy)pyrido[4,3-d]pyrimidin-4-yl)piperazin-1-yl)-2-fluoro-3-(thiazol-2-yl)prop-2-en-1-one]
7 | 59 | CN1CCC[C@H]1COc1nc(N2CCN(C(=O)/C(F)=C/c3ccccn3)[C@@H](CC#N)C2)c2cnc(-c3cccc4cccc(Cl)c34)c(F)c2n1 [Compound 19A, 2-((S)-4-(7-(8-chloronaphthalen-1-yl)-8-fluoro-2-(((S)-1-methylpyrrolidin-2-yl)methoxy)pyrido[4,3-d]pyrimidin-4-yl)-1-((Z)-2-fluoro-3-(pyridin-2-yl)acryloyl)piperazin-2-yl)acetonitrile]
8 | 57 | C#Cc1cccc2cccc(-c3ncc4c(N5CCN(C(=O)/C(F)=C/c6ccccn6)C[C@H]5C)nc(OC[C@@]56CCCN5C[C@H](F)C6)nc4c3F)c12 [Example 75, (Z)-1-((3R)-4-(7-(8-ethynylnaphthalen-1-yl)-8-fluoro-2-(((2R, 7aS)-2-fluorotetrahydro-1H-pyrrolizin-7a(5H)-yl)methoxy)pyrido[4,3-d]pyrimidin-4-yl)-3-methylpiperazin-1-yl)-2-fluoro-3-(pyridin-2-yl)prop-2-en-1-one]
9 | 65 | N#CC[C@H]1CN(c2nc(OC[C@@]34CCCN3C[C@H](F)C4)nc3c(F)c(-c4ccccc4C4CC4)ncc23)CCN1C(=O)/C(F)=C/c1ccccn1 [Compound 79, 2-((2S)-4-(7-(2-cyclopropylphenyl)-8-fluoro-2-(((2R, 7aS)-2-fluorotetrahydro-1H-pyrrolizin-7a(5H)-yl)methoxy)pyrido[4,3-d]pyrimidin-4-yl)-1-((Z)-2-fluoro-3-(pyridin-2-yl)acryloyl)piperazin-2-yl)acetonitrile]
10 | 27 | C#Cc1c(F)ccc2cc(O)cc(-c3ncc4c(N5C[C@H]6CC[C@@H](C5)N6C(=O)/C(F)=C/c5nccs5)nc(OC[C@@]56CCCN5C[C@H](F)C6)nc4c3F)c12 [Compound 1, (Z)-1-((1R, 5S)-3-(7-(8-ethynyl-7-fluoro-3-hydroxynaphthalen-1-yl)-8-fluoro-2-(((2R, 7aS)-2-fluorotetrahydro-1H-pyrrolizin-7a(5H)-yl)methoxy)pyrido[4,3-d]pyrimidin-4-yl)-3,8-diazabicyclo[3.2.1]octan-8-yl)-2-fluoro-3-(thiazol-2-yl)prop-2-en-1-one]
11 | 11 | C#Cc1c(F)ccc2cc(O)cc(-c3ncc4c(N5C[C@H]6CC[C@@H](C5)N6C(=O)/C(F)=C/c5cccnn5)nc(OC[C@@]56CCCN5C[C@H](F)C6)nc4c3F)c12 [Compound 12, (Z)-1-((1R, 5S)-3-(7-(8-ethynyl-7-fluoro-3-hydroxynaphthalen-1-yl)-8-fluoro-2-(((2R, 7aS)-2-fluorotetrahydro-1H-pyrrolizin-7a(5H)-yl)methoxy)pyrido[4,3-d]pyrimidin-4-yl)-3,8-diazabicyclo[3.2.1]octan-8-yl)-2-fluoro-3-(pyridazin-3-yl)prop-2-en-1-one]
12 | 180 | C#Cc1cccc2cccc(-c3ncc4c(N5CCN(C(=O)/C(F)=C/c6ccccn6)C[C@@H]5C)nc(OC[C@@]56CCCN5C[C@H](F)C6)nc4c3F)c12 [Example 63, (Z)-1-((S)-4-(7-(8-ethynylnaphthalen-1-yl)-8-fluoro-2-(((2R, 7aS)-2-fluorotetrahydro-1H-pyrrolizin-7a(5H)-yl)methoxy)pyrido[4,3-d]pyrimidin-4-yl)-3-methylpiperazin-1-yl)-2-fluoro-3-(pyridin-2-yl)prop-2-en-1-one]
13 | 14 | N#CC[C@H]1CN(c2nc(OC[C@@]34CCCN3C[C@H](F)C4)nc3c(F)c(-c4cc(O)ccc4C(F)(F)F)ncc23)CCN1C(=O)/C(F)=C/c1nccs1 [Compound 95, 2-((S)-4-(8-fluoro-2-(((2R, 7aS)-2-fluorotetrahydro-1H-pyrrolizin-7a(5H)-yl)methoxy)-7-(5-hydroxy-2-(trifluoromethyl)phenyl)pyrido[4,3-d]pyrimidin-4-yl)-1-((Z)-2-fluoro-3-(thiazol-2-yl)acryloyl)piperazin-2-yl)acetonitrile]
14 | 27 | C#Cc1cccc2cccc(-c3ncc4c(N(C)[C@@H]5CCN(C(=O)/C(F)=C/c6nccs6)C5)nc(OC[C@@]56CCCN5C[C@H](F)C6)nc4c3F)c12 [Compound 116, (Z)-1-((R)-3-((7-(8-ethynylnaphthalen-1-yl)-8-fluoro-2-(((2R, 7aS)-2-fluorotetrahydro-1H-pyrrolizin-7a(5H)-yl)methoxy)pyrido[4,3-d]pyrimidin-4-yl)(methyl)amino)pyrrolidin-1-yl)-2-fluoro-3-(thiazol-2-yl)prop-2-en-1-one]
15 | 350 | C#Cc1c(F)ccc2cc(O)cc(-c3ncc4c(N5C[C@H]6CC[C@@H](C5)N6C(=O)/C(F)=C/c5ccc(Br)cn5)nc(OC[C@@]56CCCN5C[C@H](F)C6)nc4c3F)c12 [Compound 9, (Z)-3-(5-bromopyridin-2-yl)-1-((1R, 5S)-3-(7-(8-ethynyl-7-fluoro-3-hydroxynaphthalen-1-yl)-8-fluoro-2-(((2R, 7aS)-2-fluorotetrahydro-1H-pyrrolizin-7a(5H)-yl)methoxy)pyrido[4,3-d]pyrimidin-4-yl)-3,8-diazabicyclo[3.2.1]octan-8-yl)-2-fluoroprop-2-en-1-one]
16 | 620 | C#Cc1cccc2cccc(-c3ncc4c(N5CCC6(CCN6C(=O)/C(F)=C/c6nccs6)C5)nc(OC[C@@]56CCCN5C[C@H](F)C6)nc4c3F)c12 (single isomer, unassigned) [Compound 103]
17 | 62 | N#CC[C@H]1CN(c2nc(OC[C@@]34CCCN3C[C@H](F)C4)nc3c(F)c(-c4ccccc4C4CCC4)ncc23)CCN1C(=O)/C(F)=C/c1nccs1 [Compound 82, 2-((2S)-4-(7-(2-cyclobutylphenyl)-8-fluoro-2-(((2R, 7aS)-2-fluorotetrahydro-1H-pyrrolizin-7a(5H)-yl)methoxy)pyrido[4,3-d]pyrimidin-4-yl)-1-((Z)-2-fluoro-3-(thiazol-2-yl)acryloyl)piperazin-2-yl)acetonitrile]
18 | 290 | C#Cc1cccc2cccc(-c3ncc4c(N5CCN(C(=O)/C(F)=C/c6ccccn6)CC5)nc(OC[C@@H]5CCCN5C)nc4c3F)c12 [Example 25, (S,Z)-1-(4-(7-(8-ethynylnaphthalen-1-yl)-8-fluoro-2-((1-methylpyrrolidin-2-yl)methoxy)pyrido[4,3-d]pyrimidin-4-yl)piperazin-1-yl)-2-fluoro-3-(pyridin-2-yl)prop-2-en-1-one]
19 | 1900 | CN1CCC[C@H]1COc1nc(N2CCN(C(=O)/C(F)=C/c3nccs3)CC2)c2cnc(-c3cccc4cccc(Cl)c34)c(F)c2n1 [Compound 22, (S,Z)-1-(4-(7-(8-chloronaphthalen-1-yl)-8-fluoro-2-((1-methylpyrrolidin-2-yl)methoxy)pyrido[4,3-d]pyrimidin-4-yl)piperazin-1-yl)-2-fluoro-3-(thiazol-2-yl)prop-2-en-1-one]
